# Entries after “also recorded” stand apart in the source; their conditions may differ.
# How the values were obtained:
# MOLM-13 tumor xenograft = experiment: Subcutaneous MOLM-13 tumor xenograft in nude mice; type: in vivo
# Procedure: Male nude mice (Nu-Fox1nu) of eight weeks old were purchased from BioLasco (Ilan, Taiwan). The nude mice (n = 5∼7 per group) were inoculated subcutaneously with MOLM-13 (1×10^6 cells/flank). All human cancer cells were determined to be free of Mycoplasma spp before the inoculation. When tumors size reached 100∼200 mm^3 and a large size of >500 mm^3, the animals were grouped and treated with the BPR1J-340 (5 and 20 mg/kg, i.v.) or vehicle as control once daily for 5 days per week for two or three weeks. Tumor sizes were measured and calculated with the formula of length×width^2/2 after the initiation of the treatments. Tumor size and animal body weight were measured twice a week after the tumor cell inoculation. At the end of the study, animals were euthanized by carbon dioxide inhalation followed by cervical dislocation. The significant difference between the treated and vehicle control were analyzed by using one-way ANOVA and Student-Newman-Keuls test. The level of a statistical significance was set at p<0.05.
# CSK = target: T1, CSK (Homo sapiens, UniProt P41240); experiment: Invitrogen SelectScreen kinase profiling; type: biochemical; conditions: 100 nM
# T1 construct: purchased Invitrogen SelectScreen
# T1 sequence (P41240 whole entry): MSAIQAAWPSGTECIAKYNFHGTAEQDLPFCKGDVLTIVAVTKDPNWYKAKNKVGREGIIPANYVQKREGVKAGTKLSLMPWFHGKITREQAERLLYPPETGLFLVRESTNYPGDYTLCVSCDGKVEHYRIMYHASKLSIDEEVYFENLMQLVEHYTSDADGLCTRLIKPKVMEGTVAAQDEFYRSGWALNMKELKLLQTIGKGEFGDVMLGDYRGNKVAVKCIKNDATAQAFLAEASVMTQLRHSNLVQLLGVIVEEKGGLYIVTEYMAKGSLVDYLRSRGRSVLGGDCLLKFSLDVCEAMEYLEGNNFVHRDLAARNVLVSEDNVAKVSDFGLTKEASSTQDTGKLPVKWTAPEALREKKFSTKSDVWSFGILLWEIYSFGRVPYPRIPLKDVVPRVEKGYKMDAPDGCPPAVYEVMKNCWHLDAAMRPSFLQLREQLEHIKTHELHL
# Procedure: (§1) The FLT3 and VEGFR1/2 Kinase-Glo kinase assays were performed as reported by our earlier study. The VEGFR3 activity analysis was conducted using the same protocol described in the VEGFR1/2 assay. The kinase inhibition profiling and inhibitory activity of FLT3-D835Y, CSF1R, and TRKA were determined by Invitrogen SelectScreen® kinase profiling service (Carlsbad, California, USA).
# (§2) BPR1J-340, a urea-substituted 3-phenyl-1H-5-pyrazolylamine-based compound, was designed through chemical modification of sulfonamide series of derivatives (BPR1J-097 series) by a structure-activity relationship (SAR) study (Fig. 1), [32]. For kinase inhibition specificity screening, BPR1J-340 was tested against 59 protein kinases covering the major oncogenic kinases of human protein kinome. […] In addition, BPR1J-340 inhibited TRKA, which is associated with the growth and metastasis of breast cancers, with an IC50 value of 8 nM. Given the high similarity of the ATP binding pockets of FLT3 and the Aurora kinases, the inhibitory activity toward Aurora A and Aurora B were measured. […] Taken together, BPRJ-340 is a selective kinase inhibitor with in vitro activity against FLT3, VEGFR2, VEGFR3 and TRKA receptor tyrosine kinases.
# MST1R (RON) = target: T2, MST1R (RON) (Homo sapiens, UniProt Q04912); experiment: Invitrogen SelectScreen kinase profiling; type: biochemical; conditions: 100 nM
# T2 construct: purchased Invitrogen SelectScreen
# Procedure: as §1, §2
# ERBB2 (HER2) = target: T3, ERBB2 (HER2) (Homo sapiens, UniProt P04626); experiment: Invitrogen SelectScreen kinase profiling; type: biochemical; conditions: 100 nM
# T3 construct: purchased Invitrogen SelectScreen
# Procedure: as §1, §2
# TYRO3 (RSE) = target: T4, TYRO3 (RSE) (Homo sapiens, UniProt Q06418); experiment: Invitrogen SelectScreen kinase profiling; type: biochemical; conditions: 100 nM
# T4 construct: purchased Invitrogen SelectScreen
# Procedure: as §1, §2
# IGF1R = target: T5, IGF1R (Homo sapiens, UniProt P08069); experiment: Invitrogen SelectScreen kinase profiling; type: biochemical; conditions: 100 nM
# T5 construct: purchased Invitrogen SelectScreen
# Procedure: as §1, §2
# FLT3 = target: T6, FLT3 (Homo sapiens, UniProt P36888); experiment: Invitrogen SelectScreen kinase profiling; type: biochemical; conditions: 100 nM
# T6 construct: purchased Invitrogen SelectScreen
# Procedure: as §1, §2
# IRAK4 = target: T7, IRAK4 (Homo sapiens, UniProt Q9NWZ3); experiment: Invitrogen SelectScreen kinase profiling; type: biochemical; conditions: 100 nM
# T7 construct: purchased Invitrogen SelectScreen
# T7 sequence (Q9NWZ3 whole entry): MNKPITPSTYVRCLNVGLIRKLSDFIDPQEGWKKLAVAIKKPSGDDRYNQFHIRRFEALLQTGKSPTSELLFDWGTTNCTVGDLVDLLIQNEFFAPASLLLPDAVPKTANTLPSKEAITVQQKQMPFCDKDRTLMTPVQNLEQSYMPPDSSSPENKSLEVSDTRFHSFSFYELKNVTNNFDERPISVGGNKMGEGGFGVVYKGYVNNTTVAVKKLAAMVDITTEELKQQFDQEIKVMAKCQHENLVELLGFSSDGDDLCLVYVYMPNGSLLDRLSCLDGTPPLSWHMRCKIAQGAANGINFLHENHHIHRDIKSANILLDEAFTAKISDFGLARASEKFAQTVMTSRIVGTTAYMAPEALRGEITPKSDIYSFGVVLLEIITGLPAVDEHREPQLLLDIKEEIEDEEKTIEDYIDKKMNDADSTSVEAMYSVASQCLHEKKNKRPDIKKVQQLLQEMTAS
# Procedure: as §1, §2
# LYN A = target: T8, LYN A (Homo sapiens, UniProt P07948); experiment: Invitrogen SelectScreen kinase profiling; type: biochemical; conditions: 100 nM
# T8 construct: purchased Invitrogen SelectScreen
# Procedure: as §1, §2
# PIM1 = target: T9, PIM1 (Homo sapiens, UniProt P11309); experiment: Invitrogen SelectScreen kinase profiling; type: biochemical; conditions: 100 nM
# T9 construct: purchased Invitrogen SelectScreen
# Procedure: as §1, §2
# AMPK A1/B1/G1 = target: T10, AMPK A1/B1/G1 (Homo sapiens, UniProt Q13131); experiment: Invitrogen SelectScreen kinase profiling; type: biochemical; conditions: 100 nM
# T10 construct: purchased Invitrogen SelectScreen
# Procedure: as §1, §2
# GSK3A (GSK3 alpha) = target: T11, GSK3A (GSK3 alpha) (Homo sapiens, UniProt P49840); experiment: Invitrogen SelectScreen kinase profiling; type: biochemical; conditions: 100 nM
# T11 construct: purchased Invitrogen SelectScreen
# Procedure: as §1, §2
# PDGFRA (PDGFR alpha) = target: T12, PDGFRA (PDGFR alpha) (Homo sapiens, UniProt P16234); experiment: Invitrogen SelectScreen kinase profiling; type: biochemical; conditions: 100 nM
# T12 construct: purchased Invitrogen SelectScreen
# T12 sequence (P16234 24-1089): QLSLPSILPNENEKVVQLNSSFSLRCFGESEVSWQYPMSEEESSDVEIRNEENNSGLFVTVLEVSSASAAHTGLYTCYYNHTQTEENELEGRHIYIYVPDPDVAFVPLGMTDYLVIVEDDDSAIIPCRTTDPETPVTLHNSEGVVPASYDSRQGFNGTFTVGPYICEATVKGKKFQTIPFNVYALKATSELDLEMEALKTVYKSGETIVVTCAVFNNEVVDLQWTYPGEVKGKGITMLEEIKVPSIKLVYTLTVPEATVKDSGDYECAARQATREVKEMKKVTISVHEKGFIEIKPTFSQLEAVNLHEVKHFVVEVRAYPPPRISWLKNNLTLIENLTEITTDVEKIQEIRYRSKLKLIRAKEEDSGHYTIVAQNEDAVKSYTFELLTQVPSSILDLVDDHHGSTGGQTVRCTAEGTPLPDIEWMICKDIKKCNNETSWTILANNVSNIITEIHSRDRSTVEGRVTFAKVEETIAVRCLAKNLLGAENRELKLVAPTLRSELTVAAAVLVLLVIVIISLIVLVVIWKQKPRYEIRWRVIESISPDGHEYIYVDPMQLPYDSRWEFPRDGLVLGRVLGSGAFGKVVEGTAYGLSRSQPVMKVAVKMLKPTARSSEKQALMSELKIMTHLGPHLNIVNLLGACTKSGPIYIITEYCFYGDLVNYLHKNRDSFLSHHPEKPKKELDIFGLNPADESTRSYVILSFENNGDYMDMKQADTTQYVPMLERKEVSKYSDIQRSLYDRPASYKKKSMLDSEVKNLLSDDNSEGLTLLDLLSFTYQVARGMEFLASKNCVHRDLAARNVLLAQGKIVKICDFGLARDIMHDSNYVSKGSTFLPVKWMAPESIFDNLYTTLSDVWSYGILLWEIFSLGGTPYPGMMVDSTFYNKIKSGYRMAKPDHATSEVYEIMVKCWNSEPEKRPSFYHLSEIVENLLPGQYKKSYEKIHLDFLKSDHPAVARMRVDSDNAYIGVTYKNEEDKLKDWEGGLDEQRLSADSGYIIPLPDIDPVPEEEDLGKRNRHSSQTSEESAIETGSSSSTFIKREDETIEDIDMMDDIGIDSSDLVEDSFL
# Procedure: as §1, §2
# FRAP1 (mTOR) = target: T13, FRAP1 (mTOR) (Homo sapiens, UniProt P42345); experiment: Invitrogen SelectScreen kinase profiling; type: biochemical; conditions: 100 nM
# T13 construct: purchased Invitrogen SelectScreen
# Procedure: as §1, §2
# TEK (Tie2) = target: T14, TEK (Tie2) (Homo sapiens, UniProt Q02763); experiment: Invitrogen SelectScreen kinase profiling; type: biochemical; conditions: 100 nM
# T14 construct: purchased Invitrogen SelectScreen
# T14 sequence (Q02763 23-1124): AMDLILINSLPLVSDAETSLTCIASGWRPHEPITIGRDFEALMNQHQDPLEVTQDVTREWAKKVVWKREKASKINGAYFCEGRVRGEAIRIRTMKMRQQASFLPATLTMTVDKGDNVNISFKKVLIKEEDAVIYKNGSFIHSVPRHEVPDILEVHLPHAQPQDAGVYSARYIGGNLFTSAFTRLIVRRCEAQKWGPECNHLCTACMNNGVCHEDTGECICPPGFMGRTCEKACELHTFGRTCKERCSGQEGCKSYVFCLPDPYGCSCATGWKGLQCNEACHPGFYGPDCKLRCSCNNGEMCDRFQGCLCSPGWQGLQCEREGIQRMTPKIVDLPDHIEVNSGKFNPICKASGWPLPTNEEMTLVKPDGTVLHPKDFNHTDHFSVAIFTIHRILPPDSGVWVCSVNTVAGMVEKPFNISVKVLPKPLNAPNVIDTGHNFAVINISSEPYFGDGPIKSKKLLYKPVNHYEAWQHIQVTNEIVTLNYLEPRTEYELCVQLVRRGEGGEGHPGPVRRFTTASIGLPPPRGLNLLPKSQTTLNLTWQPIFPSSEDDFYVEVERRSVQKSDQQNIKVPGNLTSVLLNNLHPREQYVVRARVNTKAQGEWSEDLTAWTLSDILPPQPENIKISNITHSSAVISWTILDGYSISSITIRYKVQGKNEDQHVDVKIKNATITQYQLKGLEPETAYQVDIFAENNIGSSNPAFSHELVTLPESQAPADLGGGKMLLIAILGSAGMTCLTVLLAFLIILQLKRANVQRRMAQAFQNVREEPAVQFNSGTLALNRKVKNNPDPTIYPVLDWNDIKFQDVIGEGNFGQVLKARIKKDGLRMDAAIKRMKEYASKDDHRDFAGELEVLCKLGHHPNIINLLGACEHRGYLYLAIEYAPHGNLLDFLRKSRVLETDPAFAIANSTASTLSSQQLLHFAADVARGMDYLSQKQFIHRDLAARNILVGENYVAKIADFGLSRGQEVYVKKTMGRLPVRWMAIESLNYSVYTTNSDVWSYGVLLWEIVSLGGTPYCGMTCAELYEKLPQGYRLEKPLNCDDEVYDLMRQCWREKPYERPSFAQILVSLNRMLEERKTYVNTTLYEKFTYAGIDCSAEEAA
# Procedure: as §1, §2
# SRC = target: T15, SRC (Homo sapiens, UniProt P12931); experiment: Invitrogen SelectScreen kinase profiling; type: biochemical; conditions: 100 nM
# T15 construct: purchased Invitrogen SelectScreen
# Procedure: as §1, §2
# AKT1 (PKB alpha) = target: T16, AKT1 (PKB alpha) (Homo sapiens, UniProt P31749); experiment: Invitrogen SelectScreen kinase profiling; type: biochemical; conditions: 100 nM
# T16 construct: purchased Invitrogen SelectScreen
# Procedure: as §1, §2
# AXL = target: T17, AXL (Homo sapiens, UniProt P30530); experiment: Invitrogen SelectScreen kinase profiling; type: biochemical; conditions: 100 nM
# T17 construct: purchased Invitrogen SelectScreen
# Procedure: as §1, §2
# RET = target: T18, RET (Homo sapiens, UniProt P07949); experiment: Invitrogen SelectScreen kinase profiling; type: biochemical; conditions: 100 nM
# T18 construct: purchased Invitrogen SelectScreen
# Procedure: as §1, §2
# CHEK2 (CHK2) = target: T19, CHEK2 (CHK2) (Homo sapiens, UniProt O96017); experiment: Invitrogen SelectScreen kinase profiling; type: biochemical; conditions: 100 nM
# T19 construct: purchased Invitrogen SelectScreen
# Procedure: as §1, §2
# BTK = target: T20, BTK (Homo sapiens, UniProt Q06187); experiment: Invitrogen SelectScreen kinase profiling; type: biochemical; conditions: 100 nM
# T20 construct: purchased Invitrogen SelectScreen
# Procedure: as §1, §2
# GSK3B (GSK3 beta) = target: T21, GSK3B (GSK3 beta) (Homo sapiens, UniProt P49841); experiment: Invitrogen SelectScreen kinase profiling; type: biochemical; conditions: 100 nM
# T21 construct: purchased Invitrogen SelectScreen
# T21 sequence (P49841 whole entry): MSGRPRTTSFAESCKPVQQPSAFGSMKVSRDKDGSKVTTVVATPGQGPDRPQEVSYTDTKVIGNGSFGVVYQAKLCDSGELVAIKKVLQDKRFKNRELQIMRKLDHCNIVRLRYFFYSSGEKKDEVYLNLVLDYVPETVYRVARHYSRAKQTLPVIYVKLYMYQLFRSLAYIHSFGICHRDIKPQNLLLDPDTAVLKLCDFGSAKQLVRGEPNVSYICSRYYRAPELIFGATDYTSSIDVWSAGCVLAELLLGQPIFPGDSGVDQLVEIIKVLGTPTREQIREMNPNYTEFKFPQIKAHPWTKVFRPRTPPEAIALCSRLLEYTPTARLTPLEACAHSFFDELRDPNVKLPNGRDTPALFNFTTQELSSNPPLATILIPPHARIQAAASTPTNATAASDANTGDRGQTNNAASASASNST
# Procedure: as §1, §2
# RPS6KB1 (p70S6K) = target: T22, RPS6KB1 (p70S6K) (Homo sapiens, UniProt P23443); experiment: Invitrogen SelectScreen kinase profiling; type: biochemical; conditions: 100 nM
# T22 construct: purchased Invitrogen SelectScreen
# Procedure: as §1, §2
# MAP2K1 (MEK1) = target: T23, MAP2K1 (MEK1) (Homo sapiens, UniProt Q02750); experiment: Invitrogen SelectScreen kinase profiling; type: biochemical; conditions: 100 nM
# T23 construct: purchased Invitrogen SelectScreen
# T23 sequence (Q02750 whole entry): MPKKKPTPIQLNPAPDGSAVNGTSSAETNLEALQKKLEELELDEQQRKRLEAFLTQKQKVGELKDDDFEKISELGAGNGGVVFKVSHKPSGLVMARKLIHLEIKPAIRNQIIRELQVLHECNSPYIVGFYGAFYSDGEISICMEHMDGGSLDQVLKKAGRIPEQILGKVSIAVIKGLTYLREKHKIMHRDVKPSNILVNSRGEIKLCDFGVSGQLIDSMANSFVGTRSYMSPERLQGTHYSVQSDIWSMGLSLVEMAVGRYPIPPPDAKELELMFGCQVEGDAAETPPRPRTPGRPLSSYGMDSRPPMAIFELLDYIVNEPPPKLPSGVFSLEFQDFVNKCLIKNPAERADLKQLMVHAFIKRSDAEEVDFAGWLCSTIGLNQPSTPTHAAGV
# Procedure: as §1, §2
# FLT1 (VEGFR1) = target: T24, FLT1 (VEGFR1) (Homo sapiens, UniProt P17948); experiment: Invitrogen SelectScreen kinase profiling; type: biochemical; conditions: 100 nM
# T24 construct: purchased Invitrogen SelectScreen
# Procedure: as §1, §2
# AURKA (Aurora A) = target: T25, AURKA (Aurora A) (Homo sapiens, UniProt O14965); experiment: Invitrogen SelectScreen kinase profiling; type: biochemical; conditions: 100 nM
# T25 construct: purchased Invitrogen SelectScreen
# T25 sequence (O14965 whole entry): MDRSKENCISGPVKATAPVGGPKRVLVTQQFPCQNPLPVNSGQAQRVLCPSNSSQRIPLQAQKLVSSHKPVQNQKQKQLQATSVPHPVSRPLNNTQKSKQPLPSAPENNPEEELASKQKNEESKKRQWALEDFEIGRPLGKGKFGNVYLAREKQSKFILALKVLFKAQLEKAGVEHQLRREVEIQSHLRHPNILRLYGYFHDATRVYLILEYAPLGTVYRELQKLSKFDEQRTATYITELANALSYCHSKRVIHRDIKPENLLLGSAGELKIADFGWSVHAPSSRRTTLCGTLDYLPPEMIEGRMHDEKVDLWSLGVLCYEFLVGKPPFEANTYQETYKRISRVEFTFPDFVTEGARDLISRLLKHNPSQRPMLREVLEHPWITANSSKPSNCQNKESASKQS
# Procedure: as §1, §2
# MAPK8 (JNK1) = target: T26, MAPK8 (JNK1) (Homo sapiens, UniProt P45983); experiment: Invitrogen SelectScreen kinase profiling; type: biochemical; conditions: 100 nM
# T26 construct: purchased Invitrogen SelectScreen
# Procedure: as §1, §2
# PLK1 = target: T27, PLK1 (Homo sapiens, UniProt P53350); experiment: Invitrogen SelectScreen kinase profiling; type: biochemical; conditions: 100 nM
# T27 construct: purchased Invitrogen SelectScreen
# Procedure: as §1, §2
# CHEK1 (CHK1) = target: T28, CHEK1 (CHK1) (Homo sapiens, UniProt O14757); experiment: Invitrogen SelectScreen kinase profiling; type: biochemical; conditions: 100 nM
# T28 construct: purchased Invitrogen SelectScreen
# Procedure: as §1, §2
# RPS6KA3 (RSK2) = target: T29, RPS6KA3 (RSK2) (Homo sapiens, UniProt P51812); experiment: Invitrogen SelectScreen kinase profiling; type: biochemical; conditions: 100 nM
# T29 construct: purchased Invitrogen SelectScreen
# T29 sequence (P51812 whole entry): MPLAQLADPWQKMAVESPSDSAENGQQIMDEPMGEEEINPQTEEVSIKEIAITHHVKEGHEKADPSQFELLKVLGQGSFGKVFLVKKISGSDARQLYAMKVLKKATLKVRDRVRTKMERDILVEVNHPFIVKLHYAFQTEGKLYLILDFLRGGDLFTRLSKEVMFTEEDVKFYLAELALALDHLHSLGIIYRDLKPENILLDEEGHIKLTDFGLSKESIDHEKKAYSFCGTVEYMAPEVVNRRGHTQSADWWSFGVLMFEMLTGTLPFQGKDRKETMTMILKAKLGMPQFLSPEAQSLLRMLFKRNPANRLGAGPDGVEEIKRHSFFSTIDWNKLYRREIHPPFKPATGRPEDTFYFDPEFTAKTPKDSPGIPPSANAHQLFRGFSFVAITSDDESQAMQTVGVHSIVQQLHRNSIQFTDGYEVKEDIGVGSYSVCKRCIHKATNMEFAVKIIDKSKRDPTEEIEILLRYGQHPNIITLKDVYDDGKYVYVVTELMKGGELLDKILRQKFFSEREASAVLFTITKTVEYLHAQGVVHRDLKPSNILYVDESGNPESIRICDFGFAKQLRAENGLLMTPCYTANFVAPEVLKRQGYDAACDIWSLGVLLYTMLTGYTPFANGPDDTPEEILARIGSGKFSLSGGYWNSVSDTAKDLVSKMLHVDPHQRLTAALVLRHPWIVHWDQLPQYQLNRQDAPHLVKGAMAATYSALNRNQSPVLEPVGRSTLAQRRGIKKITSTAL
# Procedure: as §1, §2
compound,measurement,setting,value
"CCc1cc(NC(=O)NCc2ccc(-c3cc(NC(=O)c4ccc(CN5CCN(C)CC5)cc4)[nH]n3)cc2)no1 [BPR1J-340, N1-(3-4-[([(5-ethyl-3-isoxazolyl)amino]carbonylamino)methyl]phenyl-1H-5-pyrazolyl)-4-[(4-methylpiperazino)methyl]benzamide]",CR ratio,MOLM-13 tumor xenograft; 5 mg/kg,67%
same,tumor response,"MOLM-13 tumor xenograft; 5 mg/kg i.v. qd, days 1–5 of each week for 3 weeks, tumors about 200 mm^3",complete regression of the tumor in all animals by day 22; also recorded: inhibited
same,"complete regression (CR), animals","MOLM-13 tumor xenograft; 5 mg/kg i.v. qd, days 1–5 weekly for 3 weeks, within 31 days of post-treatment observation",4 of 6
same,"tumor response, large tumors","MOLM-13 tumor xenograft; 20 mg/kg i.v., days 1–5 of each week for 2 weeks, average tumor volume 630 mm^3, 48-day follow up",complete and durable tumor regression; also recorded: significantly reversed
same,"body weight, mortality, tolerability","MOLM-13 tumor xenograft; nude mice, 5 and 20 mg/kg/day i.v.",well-tolerated
same,inhibition at 0.1 µM,CSK,3%
same,inhibition at 0.1 µM,MST1R (RON),6%
same,inhibition at 0.1 µM,ERBB2 (HER2),11%
same,inhibition at 0.1 µM,TYRO3 (RSE),15%
same,inhibition at 0.1 µM,IGF1R,12%
same,inhibition at 0.1 µM,FLT3,97%
same,inhibition at 0.1 µM,IRAK4,4%
same,inhibition at 0.1 µM,LYN A,17%
same,inhibition at 0.1 µM,PIM1,-5%
same,inhibition at 0.1 µM,AMPK A1/B1/G1,30%
same,inhibition at 0.1 µM,GSK3A (GSK3 alpha),-1%
same,inhibition at 0.1 µM,PDGFRA (PDGFR alpha),38%
same,inhibition at 0.1 µM,FRAP1 (mTOR),-8%
same,inhibition at 0.1 µM,TEK (Tie2),42%
same,inhibition at 0.1 µM,SRC,34%
same,inhibition at 0.1 µM,AKT1 (PKB alpha),-2%
same,inhibition at 0.1 µM,AXL,-4%
same,inhibition at 0.1 µM,RET,49%
same,inhibition at 0.1 µM,CHEK2 (CHK2),-6%
same,inhibition at 0.1 µM,BTK,7%
same,inhibition at 0.1 µM,GSK3B (GSK3 beta),36%
same,inhibition at 0.1 µM,RPS6KB1 (p70S6K),-18%
same,inhibition at 0.1 µM,MAP2K1 (MEK1),0%
same,inhibition at 0.1 µM,FLT1 (VEGFR1),15%
same,inhibition at 0.1 µM,AURKA (Aurora A),15%
same,inhibition at 0.1 µM,MAPK8 (JNK1),14%
same,inhibition at 0.1 µM,PLK1,4%
same,inhibition at 0.1 µM,CHEK1 (CHK1),27%
same,inhibition at 0.1 µM,RPS6KA3 (RSK2),0%
